Molecular target: T1, Glutaminase kidney isoform, mitochondrial (Homo sapiens, UniProt O94925)
T1 sequence (O94925 whole entry): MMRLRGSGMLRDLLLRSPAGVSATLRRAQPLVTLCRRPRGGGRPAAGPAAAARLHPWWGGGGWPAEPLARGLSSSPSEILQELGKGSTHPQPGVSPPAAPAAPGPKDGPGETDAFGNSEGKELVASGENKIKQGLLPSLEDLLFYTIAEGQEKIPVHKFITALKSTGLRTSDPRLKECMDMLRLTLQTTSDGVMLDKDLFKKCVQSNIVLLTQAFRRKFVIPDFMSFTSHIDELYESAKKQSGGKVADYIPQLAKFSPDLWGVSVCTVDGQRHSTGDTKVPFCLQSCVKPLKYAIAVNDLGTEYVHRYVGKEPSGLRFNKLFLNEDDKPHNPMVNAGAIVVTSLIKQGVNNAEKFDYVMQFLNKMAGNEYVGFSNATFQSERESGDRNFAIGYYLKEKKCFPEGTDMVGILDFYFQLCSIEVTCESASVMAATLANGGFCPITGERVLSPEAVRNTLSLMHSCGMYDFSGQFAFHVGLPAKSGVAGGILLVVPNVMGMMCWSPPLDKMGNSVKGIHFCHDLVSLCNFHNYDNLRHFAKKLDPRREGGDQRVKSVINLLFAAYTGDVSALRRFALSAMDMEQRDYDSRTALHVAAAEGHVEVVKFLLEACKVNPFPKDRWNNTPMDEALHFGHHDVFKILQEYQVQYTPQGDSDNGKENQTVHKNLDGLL
Assay: Enzymatic Activity Assay: The inhibition of purified recombinant human GAC by varying concentrations of inhibitors is assessed via a dual-coupled enzymatic assay. The glutamate produced by the glutaminase reaction is used by glutamate oxidase to produce α-ketoglutarate, ammonia, and hydrogen peroxide, with this hydrogen peroxide subsequently being used by horseradish peroxidase to produce resorufin in the presence of Amplex UltraRed. The assay buffer consisted of 50 mM Hepes (pH 7.4), 0.25 mM EDTA and 0.1 mM Triton X-100. GAC was incubated with potassium phosphate (10 minutes at room temperature) prior to incubation with inhibitor (10 minutes at room temperature). The final reaction conditions were as follows: 2 nM GAC, 50 mM potassium phosphate, 100 mU/mL glutamate oxidase (Sigma), 1 mM glutamine (Sigma), 100 mU/mL horseradish peroxidase (Sigma), 75 μM Amplex UltraRed (Life Technologies), and 1% (v/v) DMSO. The production of resorufin was monitored on a Perkin Elmer Envision plate reader (excitation 530 nm, emission 590 nm) either in a kinetics or endpoint mode (at 20 minutes). IC50 values were calculated using a four-parameter logistic curve fit.

- IC50: < 100 nM
Structure (SMILES): O=C(NCc1cc(OC(F)(F)F)ccc1F)c1cn(CCC(F)Cn2cc(C(=O)NCc3ccccn3)nn2)nn1 (stereo unspecified)
